Measurements: ChEMBL document CHEMBL1148396, “Structure-activity relationships of N-acyl pyrroloquinolone PDE-5 inhibitors” (J Med Chem, 2004)

target: cGMP-specific 3',5'-cyclic phosphodiesterase (Homo sapiens, UniProt O76074); test: Inhibitory activity against human Phosphodiesterase 5

Row | SMILES | Ki [nM]
1 | O=C(Cc1ccccc1)N1Cc2c(nc3ccccc3c2O)C1c1ccc2c(c1)OCO2 (stereo not drawn) | 12.5
2 | O=C(OCc1ccccc1)N1Cc2c(nc3ccccc3c2O)C1c1ccc2c(c1)OCO2 (stereo not drawn) | 0.58
3 | O=C(/C=C/c1ccccc1)N1Cc2c(nc3ccccc3c2O)C1c1ccc2c(c1)OCO2 (stereo not drawn) | 0.22
4 | O=S(=O)(Cc1ccccc1)N1Cc2c(nc3ccccc3c2O)C1c1ccc2c(c1)OCO2 (stereo not drawn) | 113
5 | O=C(OCc1ccncc1)N1Cc2c(nc3ccccc3c2O)C1c1ccc2c(c1)OCO2 (stereo not drawn) | 0.29
6 | O=C(OCc1ccncc1)N1Cc2c(nc3ccccc3c2O)[C@@H]1c1ccc2c(c1)OCO2 | 3.48
7 | O=S(=O)(/C=C/c1ccccc1)N1Cc2c(nc3ccccc3c2O)C1c1ccc2c(c1)OCO2 (stereo not drawn) | 118
8 | CN(Cc1ccccc1)C(=O)N1Cc2c(nc3ccccc3c2O)C1c1ccc2c(c1)OCO2 (stereo not drawn) | 11
9 | O=C(NCc1ccccc1)N1Cc2c(nc3ccccc3c2O)C1c1ccc2c(c1)OCO2 (stereo not drawn) | 1.06
10 | O=C(C#Cc1ccccc1)N1Cc2c(nc3ccccc3c2O)C1c1ccc2c(c1)OCO2 (stereo not drawn) | 0.35
11 | O=C(CCc1ccccc1)N1Cc2c(nc3ccccc3c2O)C1c1ccc2c(c1)OCO2 (stereo not drawn) | 4.53
12 | O=C(OCc1ccncc1)N1Cc2c(nc3ccccc3c2O)[C@H]1c1ccc2c(c1)OCO2 | 0.23
13 | Oc1c2c(nc3ccccc13)C(c1ccc3c(c1)OCO3)N(C/C=C/c1ccccc1)C2 (stereo not drawn) | 23.3
